Assay results from patent US20020169111A1, “Reversal of multidrug resistance in human colon carcinoma cells” (American Cyanamid Comany, priority 1998, published 2002).
Where two headings read alike, the source gives them in different places.

Test system: S1-M1-3.2 cells
Conditions: for Per Cent Survival Alone: 3 days; for Difference Score: survival alone minus survival with 3.2 μM mitoxantrone; for Toxicity (>20%): compound alone, concentration that causes greater than 20% cell death of S1-M1-3.2 cells; for IC50: read-out: IC50 (μM), resensitizing S1-M1-3.2 cells to mitoxantrone, with 3.2 μM mitoxantrone, 50% cancer cell death
Protocol: One of the first reported molecules with reversing activity was verapamil, a calcium channel blocker. […] Cells were plated into 96-well dishes (100 μl/well) in growth medium supplemented with 5% FBS. […] Reversal agents were tested from 0.1-80 μM (triplicate points per dose). In parallel wells, cells were grown in the presence of the reversal agent alone.
The Difference Score is the difference in the percentage of cells surviving when the drug was given alone minus the percentage of cells surviving when the drug was given along with the antitumor agent.
Cell survival was estimated using the Sulforhodamine (SRB) assay.

COc1ccc2c3c4n(c2c1)[C@@H](C=C(C)C)OOC(C)(C)C[C@@H]4N1C(=O)[C@@H]2CCCN2C(=O)[C@]1(O)[C@H]3OCC=C(C)C [Fumitremorgin A]
concentration giving 40% cell death (compound alone) (S1-M1-3.2 cells): 20 µM
activity in the reversal assay compared to FTC, fold lower (S1-M1-3.2 cells, Table 7 versus Table 8): 20 fold
Per Cent Survival with 3.2 μM mitoxantrone (S1-M1-3.2 cells, drug 0.1 μM): 96 ± 2 Per Cent
Per Cent Survival Alone (S1-M1-3.2 cells, drug 0.1 μM alone): 95 ± 1 Per Cent
Difference Score (S1-M1-3.2 cells, drug 0.1 μM): −1
Per Cent Survival with 3.2 μM mitoxantrone (S1-M1-3.2 cells, drug 0.5 μM): 95 ± 4 Per Cent
Per Cent Survival Alone (S1-M1-3.2 cells, drug 0.5 μM alone): 96 ± 2 Per Cent
Difference Score (S1-M1-3.2 cells, drug 0.5 μM): 1
Per Cent Survival with 3.2 μM mitoxantrone (S1-M1-3.2 cells, drug 1 μM): 94 ± 5 Per Cent
Per Cent Survival Alone (S1-M1-3.2 cells, drug 1 μM alone): 96 ± 1 Per Cent
Difference Score (S1-M1-3.2 cells, drug 1 μM): 2
Per Cent Survival with 3.2 μM mitoxantrone (S1-M1-3.2 cells, drug 5 μM): 64 ± 4 Per Cent
Per Cent Survival Alone (S1-M1-3.2 cells, drug 5 μM alone): 96 ± 1 Per Cent
Difference Score (S1-M1-3.2 cells, drug 5 μM): 32
Per Cent Survival with 3.2 μM mitoxantrone (S1-M1-3.2 cells, drug 10 μM): 40 ± 6 Per Cent
Per Cent Survival Alone (S1-M1-3.2 cells, drug 10 μM alone): 89 ± 9 Per Cent
Difference Score (S1-M1-3.2 cells, drug 10 μM): 49
Per Cent Survival with 3.2 μM mitoxantrone (S1-M1-3.2 cells, drug 20 μM): 35 ± 5 Per Cent
Per Cent Survival Alone (S1-M1-3.2 cells, drug 20 μM alone): 59 ± 4 Per Cent
Difference Score (S1-M1-3.2 cells, drug 20 μM): 24
Per Cent Survival with 3.2 μM mitoxantrone (S1-M1-3.2 cells, drug 40 μM): 34 ± 4 Per Cent
Per Cent Survival Alone (S1-M1-3.2 cells, drug 40 μM alone): 50 ± 8 Per Cent
Difference Score (S1-M1-3.2 cells, drug 40 μM): 16
Per Cent Survival with 3.2 μM mitoxantrone (S1-M1-3.2 cells, drug 80 μM): 34 ± 4 Per Cent
Per Cent Survival Alone (S1-M1-3.2 cells, drug 80 μM alone): 41 ± 8 Per Cent
Difference Score (S1-M1-3.2 cells, drug 80 μM): 7
Toxicity (>20%): 15.0 µM
IC50: 7 µM

C[C@H]1c2[nH]c3ccccc3c2C[C@H]2C(=O)N3CCC[C@H]3C(=O)N21 [Example 26, (5aS,12S,14aS)-12-methyl-1,2,3,5a,6,11,12,14a-octahydro-5H,14H-pyrrolo[1″,2″:4′,5′]pyrazino[2′,1′:6,1]pyrido[3,4-b]indole-5,14-dione]
Toxicity (>20%): >80.0 µM
IC50: 7 µM

CCCCCCCCC[C@H]1c2[nH]c3ccccc3c2C[C@H]2C(=O)N3CCC[C@H]3C(=O)N21 [Example 28, (5aS,12S,14aS)-12-nonyl-1,2,3,5a,6,11,12,14a-octahydro-5H,14H-pyrrolo[1″,2″:4′,5′]pyrazino[2′,1′:6,1]pyrido[3,4-b]Indole-5,14-dione]
Toxicity (>20%): 7.0 µM
IC50: 0.25 µM

CC(=O)NCCC[C@H]1c2[nH]c3ccccc3c2C[C@H]2C(=O)N3CCC[C@H]3C(=O)N21 [Example 30, N-{3-[(5aS,12S,14aS)-5,14-dioxo-2,3,5a,6,11,12,14,14a-octahydro-1H,5H-pyrrolo[1″,2″:4′,5′]pyrazino[2′,1′:6,1]pyrido[3,4-b]indol-12-yl]propyl}Acetamide]
Toxicity (>20%): >80 µM
IC50: > 80 µM

O=C(O)CCC(=O)NCCC[C@H]1c2[nH]c3ccccc3c2C[C@H]2C(=O)N3CCC[C@H]3C(=O)N21 [Example 32, 4-({3-[(5aS,12S,14aS)-5,14-dioxo-2,3,5a,6,11,12,14,14a-octahydro-1H,5H-pyrrolo[1″,2″:4′,5′]pyrazino[2′,1′:6,1]pyrido[3,4-b]indol-12-yl]propyl}amino)-4-oxobutanoic acid]
Toxicity (>20%): >80 µM
IC50: > 80 µM

CCCC(=O)NCCC[C@H]1c2[nH]c3ccccc3c2C[C@H]2C(=O)N3CCC[C@H]3C(=O)N21 [Example 31, N-{3-[(5aS,12S,14aS)-5,14-dioxo-2,3,5a,6,11,12,14,14a-octahydro-1H,5H-pyrrolo[1″,2″:4′,5′]pyrazino[2′,1′:6,1]pyrido[3,4-b]indol-12-yl]propyl}Butanamide]
Toxicity (>20%): >80 µM
IC50: 65 µM

CC(C)C[C@@H]1c2[nH]c3ccccc3c2C[C@H]2C(=O)N3CCC[C@H]3C(=O)N12 [Example 14a, (5aS,12R,14aS)-12-isobutyl-1,2,3,5a,6,11,12,14a-octahydro-5H,14H-pyrrolo[1″,2″:4′,5′]pyrazino[2′,1′:6,1]pyrido[3,4-b]indole-5,14-dione]
Toxicity (>20%): 80.0 µM
IC50: 80 µM

CC(C)CC1c2[nH]c3ccccc3c2CC2C(=O)N3CCCCC3C(=O)N21 [Example 21b, (6aR,13S,15aR)-13-isobutyl-1,2,3,4,6a,7,12,13,15a-nonahydro-6H,15H-pyrido[1″,2″:4′,5′]pyrazino[2′,1′:6,1]pyrido[3,4-b]indole-6H,15H-dione]
Toxicity (>20%): >80.0 µM
IC50: 6 µM

O=C(NCCC[C@@H]1c2[nH]c3ccccc3c2C[C@H]2C(=O)N3CCC[C@H]3C(=O)N12)OCc1ccccc1 [Example 24a, Benzyl 3-[(5aS,12R,14aS)-5,14-dioxo-2,3,5a,6,11,12,14,14a-octahydro-1H,5H-pyrrolo[1″,2″:4′,5′]pyrazino[2′,1′:6,1]pyrido[3,4-b]indol-12-yl]propylcarbamate]
Toxicity (>20%): 50 µM
IC50: 10 µM

CC(C)C[C@@H]1c2[nH]c3ccccc3c2C[C@@H]2C(=O)N3CCC[C@H]3C(=O)N21 [Example 15a, (5aR,12R,14aS)-12-isobutyl-1,2,3,5a,6,11,12,14a-octahydro-5H,14H-pyrrolo[1″,2″:4′,5′]pyrazino[2′,1′:6,1]pyrido[3,4-b]indole-5,14-dione]
Toxicity (>20%): >80.0 µM
IC50: 35 µM

CC(C)CC1c2[nH]c3ccccc3c2CC2C(=O)N3CCCCC3C(=O)N21 [Example 20a, (6aS,13R,15aR)-13-isobutyl-1,2,3,4,6a,7,12,13,15a-nonahydro-6H,15H-pyrido[1″,2″:4′,5′]pyrazino[2′,1′:6,1]pyrido[3,4-b]indole-6H,15H-dione]
Toxicity (>20%): 80.0 µM
IC50: 30 µM

CC(C)C[C@H]1c2[nH]c3ccccc3c2C[C@H]2C(=O)N3CC[C@H]3C(=O)N21 [Example 22b, (4aS,11S,13aS)-11-isobutyl-1,4a,5,10,11,13a-hexahydro-4H-azeto[1″,2″:4′,5′]pyrazino[2′,1′:6,1]pyrido[3,4-b]indole-4,13(2H)-dione]
Toxicity (>20%): >80.0 µM
IC50: 2.5 µM

CC(C)CC1c2[nH]c3ccccc3c2CC2C(=O)N3CCCCC3C(=O)N21 [Example 18b, (6aS,13S,15aS)-13-isobutyl-1,2,3,4,6a,7,12,13,15a-nonahydro-6H,15H-pyrido[1″,2″:4′,5′]pyrazino[2′,1′:6,1]pyrido[3,4-b]indole-6H,15H-dione]
Toxicity (>20%): 25.0 µM
IC50: 1.5 µM

CC(C)C[C@@H]1c2[nH]c3ccccc3c2C[C@H]2C(=O)N3CC[C@H]3C(=O)N12 [Example 22a, (4aS,11R,13aS)-11-isobutyl-1,4a,5,10,11,13a-hexahydro-4H-azeto[1″,2″:4′,5′]pyrazino[2′,1′:6,1]pyrido[3,4-b]indole-4,13(2H)-dione]
Toxicity (>20%): 80.0 µM
IC50: 15 µM

CC(C)C[C@@H]1c2[nH]c3ccccc3c2C[C@@H]2C(=O)N3CCC[C@@H]3C(=O)N21 [Example 17a, (5aR,12R,14aR)-12-isobutyl-1,2,3,5a,6,11,12,14a-octahydro-5H,14H-pyrrolo[1″,2″:4′,5′]pyrazino[2′,1′:6,1]pyrido[3,4-b]indole-5,14-dione]
Toxicity (>20%): 50.0 µM
IC50: 35 µM

O=C(NCCC[C@H]1c2[nH]c3ccccc3c2C[C@H]2C(=O)N3CCC[C@H]3C(=O)N21)[C@@H]1CCCN1 [Example 33, (2S)-N-{3-[(5aS,12S,14aS)-5,14-dioxo-2,3,5a,6,11,12,14,14a-octahydro-1H,5H-pyrrolo[1″,2″:4′,5′]pyrazino[2′,1′:6,1]pyrido[3,4-b]indol-12-yl]propyl}pyrrolidine-2-carboxamide]
Toxicity (>20%): >80 µM
IC50: > 80 µM

O=C1[C@@H]2Cc3c([nH]c4ccccc34)CN2C(=O)[C@@H]2CCCN12 [Example 25, (5aS,14aS)-1,2,3,5a,6,11,12,14a-octahydro-5H,14H-pyrrolo[1″,2″:4′,5′]pyrazino[2′,1′:6,1]pyrido[3,4-b]indole-5,14-dione]
Toxicity (>20%): >80 µM
IC50: 15 µM

CC(C)CC1c2[nH]c3ccccc3c2CC2C(=O)N3CCCCC3C(=O)N21 [Example 19b, (6aR,13S,15aS-13-isobutyl-1,2,3,4,6a,7,12,13,15a-nonahydro-6H,15H-pyrido[1″,2″:4′,5′]pyrazino[2′,1′:6,1]pyrido[3,4-b]indole-6H,15H-dione]
Toxicity (>20%): >80.0 µM
IC50: 4 µM
